In data set [1] the test system is human gastric adenocarcinoma (AGS) cells. Description: Sulforhodamine B (SRB) cell cytotoxicity assay, AGS cells. The format is cell-based. Particulars: for cytotoxicity to AGS cells (preliminary screen): 60, 120 and 240 ng/mL, 24 h of incubation; for cytotoxicity against AGS cells at the lowest concentration: 60 ng/mL; for cytotoxicity against AGS cells at the lowest concentration / viability at 0.24 µg/mL: 24 h; for Emax / EC50: AGS cells; for Emax: maximal drug effect on viability rate, 1 = no effect, 0 = fully cytotoxic; for EC50 / viability at 0.24 µg/mL: Homo sapiens; for EC50: 24 h of drug treatment, SRB assay; for viability at 0.24 µg/mL: AGS, 240 ng/mL, Figure 2, read-out: viability (%) in the AGS screen. The procedure: (§1) […] The cell lines were expanded, cultured, and maintained at 37 °C in a humid atmosphere with 5% CO2 in modified Dulbecco’s medium (Thermo Fisher Scientific, Waltham, MA, USA), with 10% FBS (Thermo Fisher Scientific, Waltham, MA, USA) and 100 U/mL of the antibiotic mixture penicillin/streptomycin (Thermo Fisher Scientific, Waltham, MA, USA).
(§2) We evaluated the cytotoxicity effects of novel Myrtenal hybrids against on cells by the sulforhodamine B (SRB) assay. Initially, the cells were seeded in 96-well microplates at a density of 2 × 10^4 cells/well. All compounds were initially dissolved in 100% of methanol and prediluted to reduce methanol concentration to 1% or lower in culture medium and added to the cells at different concentrations for 24 h. Then, cells were fixed by adding 10% (w/v) trichloroacetic acid (TCA) (Winkler) in each well and were stained with 0.057% (w/v) Sulforhodamine B (SRB) (Sigma-Aldrich) in 1% (v/v) acetic acid (Winkler). The bound dye was dissolved in 10 mM Tris base (Sigma-Aldrich), and the absorbance was determined at 510 nm using a multiplate reader (Synergy 2, Biotek Instruments). Percentage cell viability was determined using the formula: […]. The absorbance from the wells of the negative control (1% methanol in culture medium) was considered as the 100% viability. EC50 values were determined by regression analysis (R^2 > 0.95) of the corresponding dose response curves of percentage of cell viability and concentration of the compounds. Emax, the maximum effect of the drug at the highest tested concentration were determined using an online calculator (http://www.grcalculator.org/). Emax lies between 1 and 0; a value of 0 corresponds to a fully cytotoxic response.

The test system of data set [2] is human dermal fibroblast (HDF) cells. Description: Sulforhodamine B (SRB) cell cytotoxicity assay, HDF non-cancer cells. The note with it: 60, 120 and 240 ng/mL, 24 h. The format is cell-based. How it is done:
as §1, §2

For data set [3], the system named is human breast adenocarcinoma (MCF-7) cells. Description: Sulforhodamine B (SRB) cell cytotoxicity assay, MCF-7 cells. The format is cell-based. The note with it: for EC50: Homo sapiens, MCF7, 24 h of drug treatment, SRB assay; for Emax: maximal drug effect on viability rate, 1 = no effect, 0 = fully cytotoxic. The procedure: as §1, §2
For orientation: The SRB assay estimates cell density from bound dye.

Data set [4] concerns human colon adenocarcinoma (HT-29) cells. Put plainly: Sulforhodamine B (SRB) cell cytotoxicity assay, HT-29 cells. The format is cell-based. Particulars: HT29 cells; for Emax: maximal drug effect on viability rate, 1 = no effect, 0 = fully cytotoxic; for EC50: Homo sapiens, HT-29, 24 h of drug treatment, SRB assay. How it is done:
as §1, §2

A further data set relates to primary CD4+ T cells. Description: Viability and cell count of activated CD4+ T lymphocytes per proliferation cycle (flow cytometry). The format is cell-based, human. The note with it: compounds added at EC25 48 h after activation, incubated four days; for viability of non-proliferating CD4+ T cells: cycle 0 and 1; for viability / number of proliferating CD4+ T cells: cycle 2, 3 and 4. How it is done: CD4+ T cells were first stained with a cell tracer dye, a fluorescent reagent that diffuses into cells and binds covalently to intracellular amines, and then with a Live/Dead dye that permeates into cells with damaged membranes, while live cells remain unstained. In addition, counting beads were added into each sample to calculate the exact number of cells per cell cycle (Figure 4A). Then, in order to induce proliferation, fluorescent-labelled CD4+ T cells were activated with anti-CD3/CD28 beads, which mimic physiological T cell receptor triggering and co-stimulation in T lymphocytes. After activation, a proportion of cells proliferated, while some stayed in a non-proliferative state. […] Myrtenyl derivatives were added after the second day of culture to evaluate their effect on non-proliferating CD4+ T cells at cycle 0 and 1 and in proliferating cells in cycle 2, 3, and 4. Live CD4+ T cells activated in the presence of five Myrtenyl derivatives were counted and results were normalized with the control sample per cell cycle.
CD4+ T cells were obtained from peripheral blood from healthy volunteers. Blood samples were diluted 1:2 with PBS before adding 50 μL/mL of RosettSep Human CD4+ T cell enrichment cocktail (STEM CELL) for 20 min at room temperature. After incubation, samples were diluted again 1:4 with PBS and CD4+ T cells were obtained directly from the mononuclear fraction obtained after Ficoll–Hypaque density gradient centrifugation. CD4+ T cells were washed twice, counted, and resuspended in PBS. CD4+ T cells were then stained with 1 μM Cell Trace Violet Cell Proliferation Kit (Invitrogen, Thermo Fisher Scientific, Waltham, MA, USA) for 20 min at 37 °C, protected from light. Unbound dye was quenched by adding cold FCS for 5 min at 4 °C. CD4+ T cells were washed two times and resuspended in X–VIVO (Gibco) with IL–2 (50 U/mL, ProLeukin). Cells (2 × 10^5) were activated for 48 h with CD3/CD28 Dynabeads (Invitrogen) prior to adding the compounds. After 48 h, compounds were added (EC25) and incubated for four days. To analyze proliferation and viability, cells were stained with Live/Dead fixable far red dead cell staining kit (Invitrogen) for 30 min at 4 °C and counting beads were added before acquisition. Cells were acquired on an LSRFortessa X20 (BD) within 24 h. Data were analyzed using FlowJo (Tree Star, Inc., Ashland, OR, USA).
(Flow cytometry measures light scatter and fluorescence of single cells or particles in a stream.)

As usually defined, the EC50 is the concentration that produces a half-maximal response. In general, viability refers to a read-out of living cells in per cent, often relative to untreated cells.

On to `CC(=O)N(CC#CC#CCN(C(C)=O)C(C(=O)NC1CCCCC1)C1=CC[C@H]2C[C@@H]1C2(C)C)C(C(=O)NC1CCCCC1)C1=CC[C@H]2C[C@@H]1C2(C)C` (mixture of isomers) [4b, 2,2′-[hexa-2,4-diyne-1,6-diylbis(acetylazanediyl)]-bis[N-cyclohexyl-2-((1R,5S)-6,6-dimethylbicyclo[3.1.1]hept-2-en-2-yl)acetamide]], for which the “cytotoxicity to AGS cells (preliminary screen)” value in data set [1] is “not cytotoxic”.
Turning to `CC(=O)OC[C@@H]1O[C@H](n2cc(CN(CC(=O)NC3CCCCC3)C(=O)C3=CC[C@H]4C[C@@H]3C4(C)C)nn2)[C@@H](OC(C)=O)[C@H](OC(C)=O)[C@H]1OC(C)=O` [3e, (2S,3S,4R,5S,6S)-2-(acetoxymethyl)-6-[4-({(1R,5S)-N-[2-(cyclohexylamino)-2-oxoethyl]-6,6-dimethylbicyclo [3.1.1]hept-2-ene-2-carboxamido}methyl)-1H-1,2,3-triazol-1-yl]tetrahydro-2H-pyran-3,4,5-triyl triacetate], in data set [1], the “cytotoxicity against AGS cells at the lowest concentration” value (from here on “cytotoxicity against AGS cells”) is recorded as “low activity”.
Regarding `CC1(C)[C@H]2CC=C(C(=O)N(CC(=O)NC3CCCCC3)Cc3cn(-c4cccc(Cl)c4)nn3)[C@@H]1C2` [3b, (1R,5S)-N-{[1-(3-chlorophenyl)-1H-1,2,3-triazol-4-yl]methyl}-N-[2-(cyclohexylamino)-2-oxoethyl]-6,6-dimethylbicyclo[3.1.1]hept-2-ene-2-carboxamide], the “effect on HDF viability (preliminary screen)” value (“effect on HDF viability” for short) in data set [2] is reported as “without affecting HDF viability”. Further, in data set [3], the EC50 came to 24 ± 7 nM and the Emax came out at 0.5. In addition, in data set [4], the Emax is 0.4 and the EC50 amounted to 21 ± 7 nM. Besides, in the data set with primary CD4+ T cells, the “viability of non-proliferating CD4+ T cells” value is “did not reduce viability” and the “viability / number of proliferating CD4+ T cells” value (“viability / number” below) was “able to reduce number of proliferating cells”. In data set [1], the “cytotoxicity against AGS cells” value was “high cytotoxicity”, the Emax is listed as 0.2 and the 50% effective concentration (EC50) was 49 ± 8 nM.
Consider `CC1(C)[C@H]2CC=C(C(=O)N(CC#CC#CCN(CC(=O)NC3CCCCC3)C(=O)C3=CC[C@H]4C[C@@H]3C4(C)C)CC(=O)NC3CCCCC3)[C@@H]1C2` [4a, (1R,1′R,5S,5′S)-N,N′-(hexa-2,4-diyne-1,6-diyl)-bis{N-[2-(cyclohexylamino)-2-oxoethyl]-6,6-dimethylbicyclo [3.1.1]hept-2-ene-2-carboxamide}], for which the “cytotoxicity to AGS cells (preliminary screen)” value in data set [1] is “not cytotoxic”.
Regarding `C#CCN(CC(=O)NC1CCCCC1)C(=O)C1=CC[C@H]2C[C@@H]1C2(C)C` [2c, (1R,5S)-N-[2-(cyclohexylamino)-2-oxoethyl]-6,6-dimethyl-N-(prop-2-yn-1-yl)bicyclo[3.1.1]hept-2-ene-2-carboxamide], the viability at 0.24 µg/mL in data set [1] was determined as 60%.
`C#CCN(C(C)=O)C(C(=O)NC1CCCCC1)C1=CC[C@H]2C[C@@H]1C2(C)C` (mixture of isomers) [1c, N-cyclohexyl-2-((1R,5S)-6,6-dimethylbicyclo[3.1.1]hept-2-en-2-yl)-2-(N-(prop-2-yn-1-yl)acetamido) acetamide]: the viability at 0.24 µg/mL in data set [1] is 40%.
For the compound `Cc1ccc(-n2cc(CN(CC(=O)NC3CCCCC3)C(=O)C3=CC[C@H]4C[C@@H]3C4(C)C)nn2)cc1` [3a, (1R,5S)-N-[2-(cyclohexylamino)-2-oxoethyl]-6,6-dimethyl-N-{[1-(p-tolyl)-1H-1,2,3-triazol-4-yl]methyl} bicyclo[3.1.1]hept-2-ene-2-carboxamide], in data set [2], the “effect on HDF viability” value is listed as “without affecting HDF viability”. In addition, in data set [3], the EC50 was 24 nM and the Emax came to 0.3. In data set [4], the Emax worked out at 0.3 and the EC50 came out at 59 nM. In addition, in the data set on primary CD4+ T cells, the “viability of non-proliferating CD4+ T cells at cycle 0” value is given as “more cytotoxic than 3c”, the “viability of non-proliferating CD4+ T cells” value is on record as “reduced viability” and the “viability / number” value was “reduced viability”. Also, in data set [1], the “cytotoxicity against AGS cells” value is “high cytotoxicity”, the Emax was 0.1 and the EC50 amounted to 50 nM.
For the compound `COc1ccc(-n2cc(CN(CC(=O)NC3CCCCC3)C(=O)C3=CC[C@H]4C[C@@H]3C4(C)C)nn2)cc1` [3c, (1R,5S)-N-[2-(cyclohexylamino)-2-oxoethyl]-N-{[1-(4-methoxyphenyl)-1H-1,2,3-triazol-4-yl]methyl}-6,6-dimethylbicyclo[3.1.1]hept-2-ene-2-carboxamide], the “effect on HDF viability” value in data set [2] is “without affecting HDF viability”. In data set [3], the EC50 came to 38 nM and the Emax was 0.4. Further, in data set [4], the Emax is reported as 0.4 and the concentration giving a half-maximal response (EC50) worked out at 38 nM. In addition, in the data set on primary CD4+ T cells, the “viability of non-proliferating CD4+ T cells” value is reported as “reduced viability” and the “viability / number” value was “reduced viability”. In data set [1], the “cytotoxicity against AGS cells” value is on record as “high cytotoxicity”, the Emax stood at 0.1 and the EC50 turned out to be 75 nM.
Take `CC(=O)N(Cc1ccccc1)C(C(=O)NC1CCCCC1)C1=CC[C@H]2C[C@@H]1C2(C)C` (stereo partly drawn) [1a, 2-(N-benzylacetamido)-N-cyclohexyl-2-((1R,5S)-6,6-dimethylbicyclo[3.1.1]hept-2-en-2-yl)acetamide]: the “effect on HDF viability” value in data set [2] is reported as “without affecting HDF viability”. Further, in data set [3], the concentration giving a half-maximal response (EC50) was 65 nM and the Emax is given as 0.1. Moreover, in data set [4], the Emax stood at 0.1 and the EC50 is 68 nM. In the data set on primary CD4+ T cells, the “viability of non-proliferating CD4+ T cells at cycle 0” value is listed as “more cytotoxic than 3c”, the “viability of non-proliferating CD4+ T cells” value is given as “reduced viability” and the “viability / number” value is “reduced viability”. Also, in data set [1], the “cytotoxicity against AGS cells” value was “high cytotoxicity”, the Emax is given as 0.1 and the EC50 was determined as 46 nM.

The values above are taken from PMC7221699, “Synthesis and Cytotoxic Analysis of Novel Myrtenyl Grafted Pseudo-Peptides Revealed Potential Candidates for Anticancer Therapy” (Molecules, 2020).
